Results: PMC12750222, “Cytosporone B Affects ATP Production of Trypanosoma cruzi: A Lethal Action Investigation” (ACS Omega, 2025)
Entries after “also recorded” stand apart in the source; their conditions may differ. Read-outs that look alike come from different tables or passages of the source.

Columns and labels:
T. cruzi = tested on: T. cruzi; design: method as in literature; settings: T. cruzi treated with benznidazole; ref literature; cited from earlier work
[1] = tested on: T. cruzi intracellular amastigotes; test: Antiamastigote assay in infected peritoneal macrophages (Giemsa, infection index); format: cell-based, Trypanosoma cruzi; settings: for IC50: 48 h, intracellular amastigotes in BALB/c peritoneal macrophages, tested up to 60 μM, NA = no activity, read-out: IC50 (μM) ± SD Amastigote; for SI (selectivity index): ratio between CC50 in NCTC cells and IC50 in intracellular amastigotes
Protocol: (§1) Murine conjunctive cells (NCTC clone 929, ATCC) and rhesus monkey kidney cells (LLC-MK2, ATCC CCL 7) were maintained in RPMI-1640 supplemented with 10% fetal bovine serum (FBS) at 37 °C in 5% CO2 humidified incubator. Peritoneal macrophages were collected by washing the peritoneal cavity of BALB/c mice with RPMI-1640 medium (Sigma-Aldrich) supplemented with 10% FBS, and were maintained at 37 °C in a 5% CO2 humidified incubator. T. cruzi trypomastigotes (Y strain) were cultivated by continuous in vitro passage in LLC-MK2, in RPMI-1640 supplemented with 2% FBS at 37 °C in 5% CO2 humidified incubator. Antitrypomastigote activity was evaluated in vitro using trypomastigotes obtained from infected LLC-MK2 cell cultures. The motile trypomastigotes, spontaneously released into the supernatant, were collected by centrifugation (2100g for 10 min), washed three times with cold PBS to remove cell debris and culture medium, and finally resuspended in fresh RPMI-1640 medium.
Macrophages were seeded in 16-well chamber slides (NUNC Thermo Fisher Scientific, USA) and after 24 h infected with trypomastigotes (1:5, host cell/parasite ratio) for 2 h. Subsequently, infected cells were incubated with increasing concentrations of the compounds (up to 60 μM) for 48 h at 37 °C in 5% CO2 humidified incubator. After treatment, the cells were fixed and stained with Giemsa, and the slides were analyzed under a digital light microscope (EVOS M500, Thermo Fisher Scientific, USA). The infection index was determined by counting 200 macrophages and calculating the percentage of infected cells multiplied by the average number of amastigotes per infected macrophage. Benznidazole was used as a standard reference drug.

[2] = tested on: T. cruzi trypomastigotes (Y strain); test: Antitrypomastigote assay (resazurin); format: cell-based, Trypanosoma cruzi; settings: 24 h + 24 h resazurin, tested up to 150 μM, NA = no activity, read-out: IC50 (μM) ± SD Trypomastigote
Protocol: as §1
Antitrypomastigote activity was evaluated in vitro using trypomastigotes obtained from infected LLC-MK2 cell cultures. Briefly, […] (1 × 10^6 cells/well) were incubated with increasing concentrations of the test compounds (up to 150 μM) in RPMI-1640 medium supplemented with 10% fetal bovine serum, at 37 °C in a humidified atmosphere containing 5% CO2 for 24 h. After incubation, resazurin sodium salt (final concentration 44 μM) was added to each well, and the plates were further incubated for an additional 24 h under the same conditions. Resazurin is a redox-sensitive dye that is reduced by metabolically active parasites to the fluorescent compound resorufin, allowing the quantification of viable parasites.
The conversion of resazurin to resorufin was measured spectrophotometrically by reading the absorbance at 570 nm. The percentage of parasite viability was calculated relative to untreated controls. Benznidazole was used as a standard drug, and wells containing only medium served as negative controls.

Cytotoxic assay (MTT) = format: cell-based, Murine; settings: mouse, NCTC clone 929 fibroblast cells, NCTC clone 929 cells, highest tested concentration 200 μM
Protocol: as §1
(§2) Cytotoxicity was evaluated in vitro using fibroblast cells (NCTC clone 929) seeded in a 96-well plate (6 × 10^4/well). The compounds were diluted in DMSO (30 mM) and diluted in RPMI-1640 medium without phenol red compounds using serial dilution from 1.56 to–200 μM. The compounds were incubated with the cells for 48 h at 37 °C in 5% CO2 humidified incubator. The MTT assay was used for viability determination. After the final incubation period, 20 μL of MTT (5 mg/mL) was added for 4 h and the plate was kept at 37 °C in 5% CO2 humidified incubator. To solubilize the formazan, 80 μL of SDS (10% v/v) was added and the microplate was incubated for 24 h at 25 °C. The microplate was read at 570 nm in a plate spectrophotometer (Varioskan, Thermo, USA).

[3] = tested on: fibroblast cells (NCTC clone 929); test: Cytotoxic assay (MTT); format: cell-based, Murine; settings: NCTC clone 929 cells, 48 h, highest tested concentration 200 μM
Protocol: as §1, §2

Escherichia coli = tested on: Escherichia coli; design: method as in literature; settings: ref literature; cited from earlier work
Candida albicans = tested on: Candida albicans; design: method as in literature; settings: ref literature; cited from earlier work
Nur77 = tested on: Nur77; design: method as in PMID 18690216; settings: cited from earlier work
T. cruzi trypomastigotes [4] = test: Mitochondrial membrane electric potential (JC-1, flow cytometry); format: cell-based, Trypanosoma cruzi; settings: 55 μM, 1 and 2 h, JC-1, ratio BL2/BL1
Protocol: Mitochondrial membrane potential (ΔΨm) was evaluated using the JC-1 fluorescent probe, which accumulates in mitochondria in a potential-dependent manner, forming red-fluorescent aggregates in healthy cells with high ΔΨm and remaining as green-fluorescent monomers in cells with depolarized mitochondrial membranes. Trypomastigotes (2 × 10^6/well) were incubated with Csn-B (6) (55 μM) for 1 and 2 h, at 37 °C in HBSS + Glu. Carbonyl cyanide m-chlorophenyl hydrazone (CCCP) 100 μM was used as a positive control. After this period, parasites were washed in HBSS + Glu and resuspended with JC-1 dye (10 μM) in the dark for 10 min at 37 °C. Parasites were analyzed by flow cytometry (Attune NxT Flow Cytometer; Thermo Fisher Scientific, USA). ,
(§3) 3 Evaluation of mitochondrial membrane electric potential (ΔΨm) and ATP levels. T. cruzi trypomastigotes were incubated for 1 or 2 h with Cytosporone B (6) (55 μM). (A) ΔΨm was investigated with JC-1 dye by flow cytometry and reported as the ratio between the emission channels BL2/BL1. (B) ATP concentration was measured by luciferin/luciferase luminescent kit in a plate reader luminometer. In both analyses, untreated and treated […] with CCCP were used to achieve minimal and maximal depolarization, respectively. A representative experiment is shown. ***p < 0.005 and **p < 0.05.

T. cruzi trypomastigotes [5] = test: ATP levels (luciferin/luciferase); format: cell-based, Trypanosoma cruzi; settings: 55 μM, 1 and 2 h
Protocol: Intracellular ATP levels were measured using the ATP Determination Kit (Molecular Probes, Thermo Fisher Scientific, USA), based on the luciferin–luciferase bioluminescence reaction, in which the emitted light intensity is directly proportional to the ATP concentration present in the sample. Trypomastigotes (2 × 10^6/well) were treated with Csn-B (6) (55 μM) for 1 and 2 h. Carbonyl cyanide m-chlorophenyl hydrazone (CCCP) 100 μM was used as a positive control. After treatment, trypomastigotes were lysed using HBSS + Glu with 0.5% Triton X-100 and mixed with a standard reaction buffer (ATP Determination kit, Molecular Probes, USA) containing DTT (1 mM), luciferin (0.5 mM), and firefly luciferase (1.25 μg/mL). ,
as §3

Staphylococcus aureus = tested on: Staphylococcus aureus; design: method as in literature; settings: ref literature; cited from earlier work
Enterococcus faecalis = tested on: Enterococcus faecalis; design: method as in literature; settings: ref literature; cited from earlier work
bacteria = tested on: bacteria; design: method as in literature; settings: ref literature; cited from earlier work
[6] = tested on: human lung fibroblast MRC-5 cells; design: method as in PMID 29660469; settings: cited from earlier work
plants = tested on: plants; design: method as in literature; settings: ref literature; cited from earlier work
[7] = Trypanosoma cruzi, Peritoneal macrophage, in Mus musculus

O=C(Cn1ccnc1[N+](=O)[O-])NCc1ccccc1 [Benznidazole, reference compound]
mitochondrial membrane potential (T. cruzi): depolarization | respiratory chain (T. cruzi): respiratory chain inhibition | IC50 [1, 7]: 5 ± 1.5 µM | SI (selectivity index) [1]: 38.1 | IC50 ([2]; Trypanosoma cruzi): 17.7 ± 1.9 µM | CC50 at 48 h (Cytotoxic assay (MTT)): 191 ± 13.4 µM

COC(=O)Cc1cc(O)cc(O)c1C(=O)CCCCCC(C)=O [Compound 3, Dothiorelone P]
CC50 [3]: > 200 µM

C=C1[C@@H](C)[C@H]2[C@H](Cc3ccccc3)NC(=O)[C@]23[C@H](OC(C)=O)/C=C/[C@](C)(O)C[C@@H](C)C/C=C/[C@H]3[C@@H]1O [Compound 7, Cytochalasin H]
IC50 [2]: 47.9 ± 6.3 µM | CC50 [3]: > 200 µM

CCCCCCCC(=O)c1c(O)cc(O)cc1CC(=O)OCC [Compound 6, Cytosporone B]
antimicrobial activity (Escherichia coli): antimicrobial activity | antimicrobial activity (Candida albicans): antimicrobial activity | action on Nur77 nuclear receptor (Nur77): agonist | mitochondrial membrane electric potential (ΔΨm) (T. cruzi trypomastigotes [4]): depolarization of the membrane | mitochondrial membrane electric potential (ΔΨm) (T. cruzi trypomastigotes [4]; listed as Csn-B): depolarization of the mitochondrial membrane potential; also recorded: significant depolarization | IC50 [1, 7]: < 10 µM | IC50 [1]: 9.1 ± 3.2 µM | SI (selectivity index) [1]: >22.0 | ATP levels (T. cruzi trypomastigotes [5]): ATP decrease | ATP levels (T. cruzi trypomastigotes [5]; listed as Csn-B): decrease in the ATP levels; also recorded: significant decrease in ATP levels; also recorded: significant reduction in intracellular ATP levels | antimicrobial activity (Staphylococcus aureus): antimicrobial activity | antimicrobial activity (Enterococcus faecalis): antimicrobial activity | IC50 ([2]; Trypanosoma cruzi): 36.5 ± 1.9 µM | antibacterial activity (bacteria): potent antibacterial activity | CC50 at 48 h (Cytotoxic assay (MTT)): > 200 µM

Dothiorelone Q [Compound 4]
inhibition of TFG-β induced activation of MRC-5 cells [6]: inhibition | IC50 [1]: 43 ± 9 µM | CC50 [3]: > 200 µM

Dothiorelone A [Compound 1]
CC50 [3]: > 200 µM

Dothiorelone B [Compound 2]
CC50 [3]: > 200 µM

CCCCCCCC(=O)c1c(O)cc(O)cc1CC(=O)O [Compound 5, Cytosporone A]
antimicrobial activity (Escherichia coli): antimicrobial activity | inhibition for germination and growth of plants (plants): inhibition | antimicrobial activity (Candida albicans): antimicrobial activity | IC50 [1]: 29.9 ± 0.5 µM | antimicrobial activity (Staphylococcus aureus): antimicrobial activity | antimicrobial activity (Enterococcus faecalis): antimicrobial activity | CC50 [3]: > 200 µM
